# From the OligoGym collection
# These antisense oligonucleotides have a phosphorothioate backbone; sugars and methylation of C are not fully specified.
# Target: GNAS
# Conditions: ASO
# Note: test concentration or dose not given here.
row,Sequence,remaining target (mRNA or protein) (fraction of control)
1,ACACACGGCGGATGTTCTCA,0.42
2,ACACGGCGGATGTTCTCAGT,0.39
3,ACGGCGGATGTTCTCAGTGT,0.71
4,ACTGAAAGTGAGAGGGAACT,≥ 1
5,AGCGCAGGTGAAATGAGGGT,≥ 1
6,AGGTGAAATGAGGGTAGCAG,≥ 1
7,AGTGAGAGGGAACTTTTGTG,0.41
8,ATATTTATTTCATTTGTTTC,0.61
9,ATGTTCTCAGTGTCCACAGC,0.58
10,ATTTATTTCATTTGTTTCTT,≥ 1
11,ATTTCATTTGTTTCTTTTAT,0.76
12,ATTTGGAACATCTAAGCAAG,0.66
13,ATTTGTTTGCTGCTGCTGTT,0.81
14,CACGGCGGATGTTCTCAGTG,0.44
15,CAGGTGAAATGAGGGTAGCA,≥ 1
16,CATTTGTTTCTTTTATTTCA,0.65
17,CATTTTATTTGTTTGCTGCT,0.65
18,CGCAGGTGAAATGAGGGTAG,0.35
19,CGGCGGATGTTCTCAGTGTC,0.32
20,CTGAATGATGTCACGGCAGT,0.63
21,CTGCTGCTGTTTTATTTATT,0.63
22,CTTTGGTTGCCTTCTCACTG,0.55
23,CTTTTATTTCATTTTATTTG,0.97

row,Sequence,remaining target (mRNA or protein) (fraction of control)
1,GAATGATGTCACGGCAGTCG,0.39
2,GATGTTCTCAGTGTCCACAG,0.45
3,GCAGGTGAAATGAGGGTAGC,≥ 1
4,GCGCAGGTGAAATGAGGGTA,0.9
5,GCGCTGAATGATGTCACGGC,0.38
6,GCTGCTGCTGTTTTATTTAT,0.43
7,GCTGCTGTTTTATTTATTTT,0.75
8,GGGTTCCCTTCTTAGAGCAG,0.52
9,GGGTTTCGCAAAATCACTCG,0.61
10,GGTTCCCTTCTTAGAGCAGC,≥ 1
11,GGTTGCCTTCTCACTGTCTC,0.58
12,GGTTTCGCAAAATCACTCGG,0.41
13,GTGAAATGAGGGTAGCAGTA,≥ 1
14,GTGAGAGGGAACTTTTGTGG,0.72
15,GTTGCCTTCTCACTGTCTCC,0.75
16,GTTTCGCAAAATCACTCGGG,0.5
17,GTTTCTTTTATTTCATTTTA,≥ 1
18,GTTTGCTGCTGCTGTTTTAT,0.53
19,TACTGAAAGTGAGAGGGAAC,0.65
20,TATTTATTTCATTTGTTTCT,≥ 1
21,TATTTCATTTGTTTATTTTA,≥ 1
22,TATTTGTTTGCTGCTGCTGT,≥ 1
23,TCATTTGTTTCTTTTATTTC,0.85

row,Sequence,remaining target (mRNA or protein) (fraction of control)
1,TCATTTTATTTGTTTGCTGC,0.75
2,TCTTTTATTTCATTTTATTT,0.84
3,TGAATGATGTCACGGCAGTC,0.69
4,TGAGAGGGAACTTTTGTGGC,0.72
5,TGCCTTCTCACTGTCTCCAT,0.75
6,TGCGCTGAATGATGTCACGG,0.41
7,TGCTGCTGCTGTTTTATTTA,0.62
8,TGCTGCTGTTTTATTTATTT,≥ 1
9,TGGTTGCCTTCTCACTGTCT,0.62
10,TGTTCTCAGTGTCCACAGCG,0.39
11,TGTTTCTTTTATTTCATTTT,≥ 1
12,TGTTTGCTGCTGCTGTTTTA,0.96
13,TTACTGAAAGTGAGAGGGAA,≥ 1
14,TTATTTCATTTGTTTCTTTT,0.64
15,TTATTTCATTTTATTTGTTT,0.92
16,TTCATTTGTTTCTTTTATTT,≥ 1
17,TTCATTTTATTTGTTTGCTG,0.79
18,TTCTTTTATTTCATTTTATT,≥ 1
19,TTGCCTTCTCACTGTCTCCA,0.56
20,TTGCTGCTGCTGTTTTATTT,≥ 1
21,TTGTTTCTTTTATTTCATTT,≥ 1
22,TTGTTTGCTGCTGCTGTTTT,0.45
23,TTTATTTCATTTGTTTCTTT,0.93
